“And” between values parts separate entries of the source, which are not always exact repeats. Equal values may be shown once. Read-outs that look alike come from different tables or passages of the source.
Key:
SULT2A1 [1] = biological target: T1, SULT2A1 (Homo sapiens, UniProt Q06520); assay: Equilibrium ligand binding monitored by intrinsic enzyme fluorescence
T1 sequence (Q06520 1-285): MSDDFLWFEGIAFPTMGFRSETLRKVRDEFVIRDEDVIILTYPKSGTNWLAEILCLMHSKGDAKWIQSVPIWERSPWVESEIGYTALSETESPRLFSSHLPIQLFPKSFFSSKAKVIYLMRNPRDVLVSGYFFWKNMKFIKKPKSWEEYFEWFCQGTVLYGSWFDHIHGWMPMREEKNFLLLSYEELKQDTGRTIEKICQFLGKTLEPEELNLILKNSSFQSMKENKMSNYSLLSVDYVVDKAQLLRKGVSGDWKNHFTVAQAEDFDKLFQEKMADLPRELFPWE

SULT2A1 [2] = biological target: T1, SULT2A1; assay: Presteady state
SULT2A1 [3] = biological target: T1, SULT2A1; assay: Initial-rate kinetics of raloxifene and DHEA sulfation; conditions: for Kia: co-substrate extrapolated to zero; for Km: 25 °C, pH 7.4, sequential Bi-Bi fit
[4] = cited from earlier work
SULT2A1 [5] = biological target: T1, SULT2A1; conditions: read-out: typical Km; cited from earlier work

**Q.** With `C[C@]12CC[C@H](O)CC1=CC[C@@H]1[C@@H]2CC[C@]2(C)C(=O)CC[C@@H]12` [DHEA, 5-dehydroepiandrosterone] as the compound, how does the Kd (SULT2A1 [1]; Kd, enzyme species E· (unliganded)) read?
**A.** The Kd was 1000 nM.

**Q.** And the Kd (SULT2A1 [1]; Kd, enzyme species PAP·E·, global fit of titrations at five PAP concentrations)?
**A.** The Kd was 1100 nM.

**Q.** And the “synergy between PAP and acceptor” value (SULT2A1 [1]; global fit, five PAP concentrations)?
**A.** Its value is 1.1 (± 0.2).

**Q.** What about the Kd (SULT2A1 [2]) of the same compound?
**A.** The Kd was 1100 nM.

**Q.** What about the koff (SULT2A1 [2]; enzyme species E· (unliganded)) of the same compound?
**A.** Its koff is 2.1 s⁻¹.

**Q.** What about the koff (SULT2A1 [2]; enzyme species PAPS·E·) of the same compound?
**A.** Its koff is 3 s⁻¹.

**Q.** And the “kcat/Km relative to raloxifene” value (SULT2A1 [3]; DHEA vs raloxifene)?
**A.** The value was 135 fold.

**Q.** What about the Kia (SULT2A1 [3]; DHEA/PAPS substrate pair) of the same compound?
**A.** Its Kia is 1.8 (0.1) μM.

**Q.** And the “positive synergy in the interaction with PAPS” value (SULT2A1 [3]; from kinetic constants)?
**A.** Its value is 1.4 fold.

**Q.** What about the sulfated in-vivo [4] of the same compound?
**A.** Its sulfated in-vivo is over 99%.

**Q.** With `Nc1ncnc2c1ncn2[C@@H]1O[C@H](COP(=O)(O)O)[C@@H](OP(=O)(O)O)[C@H]1O` [PAP, 3′, 5′-diphosphoadenosine] as the compound, how does the Kd (SULT2A1 [1]; Kd, enzyme species DHEA·E·) read?
**A.** The Kd was 210 nM.

**Q.** What about the Kd (SULT2A1 [1]; Kd, enzyme species Ral·E·) of the same compound?
**A.** Its Kd is 6000 nM.

**Q.** For `Nc1ncnc2c1ncn2[C@@H]1O[C@H](COP(=O)(O)OS(=O)(=O)O)[C@@H](OP(=O)(O)O)[C@H]1O` [PAPS, 3′-phosphoadenosine 5′-phosphosulfate], which Kd (SULT2A1 [1]; enzyme species E· (unliganded)) is on record?
**A.** Its Kd is 280 nM.

**Q.** What about the koff (SULT2A1 [2]; enzyme species DHEA·E·) of the same compound?
**A.** Its koff is 2.1 s^−1 and 1.9 (0.2) s^−1.

**Q.** What about the koff (SULT2A1 [2]; enzyme species E· (unliganded)) of the same compound?
**A.** The koff was 2.1 s^−1 and 2.3 (0.3) s^−1.

**Q.** What about the koff (SULT2A1 [2]; enzyme species RAL·E·, raloxifene 50 μM) of the same compound?
**A.** The koff was 50 (2) s^−1.

**Q.** What about the “faster escape from PAPS·E·raloxifene than from PAPS·E and PAPS·E·DHEA” value (SULT2A1 [2]; off-rate constants) of the same compound?
**A.** The value was 24 fold.

**Q.** What about the “weakening in PAPS affinity with raloxifene bound” value (SULT2A1 [2]; raloxifene prevents gate closure) of the same compound?
**A.** Its value is 21 fold.

**Q.** And the Kd (SULT2A1 [2]; read-out: Kd (koff/kon), enzyme species DHEA·E·)?
**A.** Its Kd is 240 nM.

**Q.** And the Kd (SULT2A1 [2]; read-out: Kd (koff/kon), enzyme species E· (unliganded))?
**A.** Its Kd is 270 nM.

**Q.** And the Kd (SULT2A1 [2]; read-out: Kd (koff/kon), enzyme species RAL·E·, raloxifene 50 μM)?
**A.** The Kd was 6000 nM.

**Q.** And the Km (SULT2A1 [5])?
**A.** Its Km is about 300 nM.

**Q.** And the kcat (SULT2A1 [3]; DHEA/PAPS substrate pair)?
**A.** Its kcat is 0.7 (0.03) sec^−1.

**Q.** And the Km (SULT2A1 [3]; DHEA/PAPS substrate pair)?
**A.** The Km was 0.39 µM.

**Q.** What about the Kia (SULT2A1 [3]; DHEA/PAPS substrate pair) of the same compound?
**A.** Its Kia is 0.47 (0.06) μM.

**Q.** And the kcat (SULT2A1 [3]; RAL/PAPS substrate pair)?
**A.** Its kcat is 0.10 (0.01) sec^−1.

**Q.** What about the Km (SULT2A1 [3]; RAL/PAPS substrate pair) of the same compound?
**A.** The Km was 5.9 µM.

**Q.** What about the Kia (SULT2A1 [3]; RAL/PAPS substrate pair) of the same compound?
**A.** Its Kia is 0.24 (0.04) μM.

From PMC3448010 (Biochemistry, 2012)
